Source: patent publication EP2963022A1, “FUSED HETEROCYCLIC COMPOUND AND PEST CONTROL APPLICATIONS THEREOF” (priority 2013, dated 2014)

Legend:
Format in all cases: in vivo
Plutella xylostella = test: Test Example 6: spray test on cabbage against Plutella xylostella larvae; details: 120 h, sprayed 20 mL/cup on cabbage, second instar larvae, 5 days at 25°C, read-out: Death rate
Protocol: On the other hand, on cabbage at the third leaf stage planted in a polyethylene cup was sprayed, at a rate 20 mL/cup, the test drug solution. After the drug solution was dried, the foliage part was cut off, and then placed in a 50 mL volume cup. Five second instar larvae of Plutella xylostella were released into the cup, and the cup was sealed with a lid. After the cup was kept at 25°C for 5 days, the number of dead insects was counted. The death rate was calculated according to the following equation. Death rate (%) = (Number of deads insects/Number of tested insects) × 100 [formula]

[1] = test system: Adoxophyes orana fasciata; test: Test Example 7: spray test on apple tree against Adoxophyes orana fasciata larvae; details: in Malus domestica, 168 h, read-out: Death rate
Protocol: The formulations of Compounds of Present Invention 1-2 and 1-3 as obtained in Formulation Example 5 were diluted with water, so as to have a concentration of the active ingredient of 500 ppm, to prepare a test spray solution.
On the other hand, an apple tree was planted in a plastic cup, and grown until the seventh-eighth true leaf was spread. To the apple tree was sprayed, at a rate of 20 mL/cup, the test drug solution. After the drug solution was dried, 60 first-instar larvae of Adoxophyes orana fasciata were released, and covered with a plastic cup the bottom of which was cut off and on which a filter paper was put, with the plastic cup cover placed upside-down. After 7 days, the number of dead insects was counted, and the death rate was calculated according to the following equation. Death rate (%) = (Number of deads insects/Number of tested insects) × 100 [formula]

Musca domestica = test: Test Example 8: filter paper and sucrose bait test against Musca domestica; details: 24 h, read-out: Death rate
Protocol: The formulation of Compound of Present Invention 1-2 as obtained in Formulation Example 5 was diluted with water, so as to have a concentration of the active ingredient of 500 ppm, to prepare a test drug solution.
A filter paper having a diameter of 5.5 cm was spread on the bottom of a polyethylene cup having the same diameter and 0.7 ml of the test drug solution was added dropwise onto the filter paper, and 30 mg of sucrose was uniformly placed as bait. Into the polyethylene cup, 10 female imagoes of Musca domestica were released, and the cup was sealed with a lid. After 24 hours, the life and death of Musca domestica was examined, the number of dead insects was counted, and the death rate was calculated according to the following equation. Death rate (%) = (Number of deads insects/Number of tested insects) × 100 [formula]

Culex pipiens pallens = test: Test Example 10: larvicidal test in water against Culex pipiens pallens; details: 24 h, active ingredient concentration 3.5 ppm in ion-exchanged water, last-instar larvae, one day later, read-out: Death rate
Protocol: The formulations of Compounds of Present Invention 1-2, 1-3 and 1-8 as obtained in Formulation Example 5 were diluted with water, so as to have a concentration of the active ingredient of 500 ppm, to prepare a test drug solution.
0.7 ml of the test drug solution was added to 100 ml of ion-exchanged water (active ingredient concentration: 3.5 ppm). 20 last-instar larvae of Culex pipiens pallens were released into the solution. One day later, the life and death of the Culex pipiens pallens was examined, and the number of dead insects was counted to calculate the death rate. Death rate (%) = (Number of deads insects/Number of tested insects) × 100 [formula]

[2] = test system: Haemaphysalis longicornis; test: Test Example 11: coated screw tube contact test against Haemaphysalis longicornis ticks; details: 48 h, 2 mg in 0.2 mL acetone coated on inner wall of screw tube, unfed nymphal ticks, after 2 days, read-out: Death rate
Protocol: Compound of Present Invention 1-24 (2 mg) was weighed in a screw tube (Maruemu No. 5; 27 x 55 mm), and 0.2 mL of acetone was added thereto, and the screw tube was sealed with a cap to dissolve the compound. The screw tube was rotated and inverted to uniformly coat the drug solution onto the whole inner wall of the tube. After removing the cap, the solution was air-dried for about 2 hours, then unfed nymphal ticks, Haemaphysalis longicornis (5 ticks/group) were released, and the tube was sealed with the cap. After 2 days, the number of dead insects was counted, and the death rate was calculated according to the following equation. Death rate (%) = 100 × (Number of deads insects/Number of tested insects) [formula]

Row | SMILES | mortality at 500 ppm (Plutella xylostella) | mortality at 500 ppm [1] | mortality at 500 ppm (Musca domestica) | mortality at 3.5 ppm (Culex pipiens pallens) | mortality at 2 mg/tube [2]
1 | CCS(=O)(=O)c1cc(C(=O)OC)ccc1-c1nc2cc(C(F)(F)F)cnc2n1C [1-2] | ≥ 80% | ≥ 90% | 100% | ≥ 95% | 
2 | CCOC(=O)c1ccc(-c2nc3cc(C(F)(F)F)cnc3n2C)c(S(=O)(=O)CC)c1 [1-3] | ≥ 80% | ≥ 90% |  | ≥ 95% | 
3 | CCOC(=O)c1ccc(-c2nc3cc(C(F)(F)F)ccc3n2C)c(S(=O)(=O)CC)c1 [1-8] |  |  |  | ≥ 95% | 
4 | CCOC(=O)c1ccc(-c2nc3cc(C(F)(F)F)ccc3s2)c(S(=O)(=O)CC)c1 [1-24] |  |  |  |  | 100%
